US8680139B2 (Progenra, priority 2009, dated 2014)

These compounds were tested against T1, USP7 (Homo sapiens, UniProt Q93009) (assay: USP7, Ub-PLA2 assay). Settings: Ub-PLA2 / NBD C6-HPC fluorescence, 30 minute preincubation; read-out: EC50 for inhibition of USP7.
T1 construct: full length human USP7 protein; made in house
Type: biochemical
Protocol: The purpose of this assay is to measure the inhibition of USP7 by various compounds of the invention synthesized according to the above-described methods. […] The vehicle control was 100% (v/v) DMSO. 1.6 μL aliquots of the diluted test compound and controls were dispensed into individual wells in a black walled 96 well plate. […] The data were normalized within a plate relative to the control wells using the equation % inhibition=(100−(((RFUcompound−RFUmean NEM) / (RFUmean DMSO−RFUmean NEM))×100)).

T1 sequence (Q93009 whole entry): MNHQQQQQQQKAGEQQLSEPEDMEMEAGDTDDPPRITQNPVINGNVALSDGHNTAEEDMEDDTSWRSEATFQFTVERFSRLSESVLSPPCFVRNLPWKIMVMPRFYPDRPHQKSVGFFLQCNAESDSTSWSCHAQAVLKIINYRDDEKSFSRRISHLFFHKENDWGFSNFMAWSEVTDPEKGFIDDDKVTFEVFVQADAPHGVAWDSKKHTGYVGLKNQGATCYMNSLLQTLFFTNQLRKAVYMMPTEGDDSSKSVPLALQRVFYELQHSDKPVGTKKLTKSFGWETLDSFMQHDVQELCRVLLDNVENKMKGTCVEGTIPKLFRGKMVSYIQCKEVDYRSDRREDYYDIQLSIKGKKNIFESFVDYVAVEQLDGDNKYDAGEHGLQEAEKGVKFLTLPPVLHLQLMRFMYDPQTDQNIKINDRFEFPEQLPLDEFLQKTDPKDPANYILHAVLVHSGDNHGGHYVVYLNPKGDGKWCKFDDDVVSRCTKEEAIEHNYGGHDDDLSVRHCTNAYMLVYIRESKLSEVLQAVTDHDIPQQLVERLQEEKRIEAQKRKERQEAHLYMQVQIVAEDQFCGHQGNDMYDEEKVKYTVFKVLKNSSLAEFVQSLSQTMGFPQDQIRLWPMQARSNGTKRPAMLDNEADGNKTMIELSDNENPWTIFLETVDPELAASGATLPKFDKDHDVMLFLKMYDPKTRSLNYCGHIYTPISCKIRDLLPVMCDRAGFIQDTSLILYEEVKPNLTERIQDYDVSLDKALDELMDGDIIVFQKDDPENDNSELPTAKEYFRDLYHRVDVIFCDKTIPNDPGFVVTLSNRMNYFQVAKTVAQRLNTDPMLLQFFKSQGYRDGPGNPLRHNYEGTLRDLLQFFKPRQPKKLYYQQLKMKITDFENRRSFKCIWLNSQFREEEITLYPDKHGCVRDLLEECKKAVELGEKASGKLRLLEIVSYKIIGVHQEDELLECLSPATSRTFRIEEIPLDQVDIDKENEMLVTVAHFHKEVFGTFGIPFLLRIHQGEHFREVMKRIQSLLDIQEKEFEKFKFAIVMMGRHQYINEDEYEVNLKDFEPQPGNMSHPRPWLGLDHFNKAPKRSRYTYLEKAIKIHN

Row | Structure (SMILES) | EC50
1 | O=C(NCCCN1CCCC1)c1cc([N+](=O)[O-])c(Sc2c(Cl)cncc2Cl)s1 [Example 191, 5-((3,5-dichloropyridin-4-yl)thio)-4-nitro-N-(3-(pyrrolidin-1-yl)propyl)thiophene-2-carboxamide] | ≤ 1000 nM
2 | CN(C)c1ccc(NC(=O)c2cc([N+](=O)[O-])c(Sc3c(Cl)cncc3Cl)s2)cc1 [Example 86, 5-((3,5-dichloropyridin-4-yl)thio)-N-(4-(dimethylamino)phenyl)-4-nitrothiophene-2-carboxamide] | 1000 to 10000 nM
3 | Cc1ccsc1CNC(=O)c1cc([N+](=O)[O-])c(Sc2c(Cl)cncc2Cl)s1 [Example 56, 5-((3,5-dichloropyridin-4-yl)thio)-N-((3-methylthiophen-2-yl)methyl)-4-nitrothiophene-2-carboxamide] | 1000 to 10000 nM
4 | O=C(Nc1c(Cl)cccc1Cl)c1cc([N+](=O)[O-])c(Sc2c(Cl)cncc2Cl)s1 [Example 135, N-(2,6-dichlorophenyl)-5-((3,5-dichloropyridin-4-yl)thio)-4-nitrothiophene-2-carboxamide] | ≤ 1000 nM
5 | CS(=O)(=O)c1cccc(CNC(=O)c2cc([N+](=O)[O-])c(Sc3c(Cl)cncc3Cl)s2)c1 [Example 125, 5-((3,5-dichloropyridin-4-yl)thio)-N-(3-(methylsulfonyl)benzyl)-4-nitrothiophene-2-carboxamide] | ≤ 1000 nM
6 | COc1ccc(Cl)cc1NC(=O)c1cc([N+](=O)[O-])c(Sc2c(Cl)cncc2Cl)s1 [Example 130, N-(5-chloro-2-methoxyphenyl)-5-((3,5-dichloropyridin-4-yl)thio)-4-nitrothiophene-2-carboxamide] | ≤ 1000 nM
7 | O=C(NCC(=O)N1CCC(CO)CC1)c1cc([N+](=O)[O-])c(Sc2c(Cl)cncc2Cl)s1 [Example 215, 5-((3,5-dichloropyridin-4-yl)thio)-N-(2-(4-(hydroxymethyl)piperidin-1-yl)-2-oxoethyl)-4-nitrothiophene-2-carboxamide] | 1000 to 10000 nM
8 | CNC(C)c1cc([N+](=O)[O-])c(Sc2ccc(Cl)cc2Cl)s1 (stereo not drawn) [Example 28, 1-[5-(2,4-dichlorophenyl)sulfanyl-4-nitro-2-thienyl]-N-methyl-ethanamine] | > 10000 nM
9 | COCCNC(=O)CNC(=O)c1cc([N+](=O)[O-])c(Sc2c(Cl)cncc2Cl)s1 [Example 214, 5-((3,5-dichloropyridin-4-yl)thio)-N-(2-((2-methoxyethyl)amino)-2-oxoethyl)-4-nitrothiophene-2-carboxamide] | 1000 to 10000 nM
10 | COCCCNC(=O)CNC(=O)c1cc([N+](=O)[O-])c(Sc2c(Cl)cncc2Cl)s1 [Example 213, 5-((3,5-dichloropyridin-4-yl)thio)-N-(2-((3-methoxypropyl)amino)-2-oxoethyl)-4-nitrothiophene-2-carboxamide] | 1000 to 10000 nM
11 | O=C(NCC(=O)N1CCC(F)CC1)c1cc([N+](=O)[O-])c(Sc2c(Cl)cncc2Cl)s1 [Example 216, 5-((3,5-dichloropyridin-4-yl)thio)-N-(2-(4-fluoropiperidin-1-yl)-2-oxoethyl)-4-nitrothiophene-2-carboxamide] | 1000 to 10000 nM
12 | CC(C)(C)OC(=O)CNC(=O)c1cc([N+](=O)[O-])c(Sc2c(Cl)cncc2Cl)s1 [Example 62, tert-butyl 2-(5-((3,5-dichloropyridin-4-yl)thio)-4-nitrothiophene-2-carboxamido)acetate] | 1000 to 10000 nM
13 | CN1CCC(NS(=O)(=O)c2cc([N+](=O)[O-])c(Sc3c(Cl)cncc3Cl)s2)CC1 [Example 246, 5-((3,5-dichloropyridin-4-yl)thio)-N-(1-methylpiperidin-4-yl)-4-nitrothiophene-2-sulfonamide] | 1000 to 10000 nM
14 | CC(C)(C)NC(=O)c1cc([N+](=O)[O-])c(Sc2c(Cl)cncc2Cl)s1 [Example 153, N-(tert-butyl)-5-((3,5-dichloropyridin-4-yl)thio)-4-nitrothiophene-2-carboxamide] | ≤ 1000 nM
15 | CC(C)N1CCC(NC(=O)c2cc([N+](=O)[O-])c(Sc3nc4ccccc4s3)s2)CC1 [Example 253, 5-(benzo[d]thiazol-2-ylthio)-N-(1-isopropylpiperidin-4-yl)-4-nitrothiophene-2-carboxamide] | 1000 to 10000 nM
16 | O=C(NCC(=O)N1CCCC(O)C1)c1cc([N+](=O)[O-])c(Sc2c(Cl)cncc2Cl)s1 (stereo not drawn) [Example 212, 5-((3,5-dichloropyridin-4-yl)thio)-N-(2-(3-hydroxypiperidin-1-yl)-2-oxoethyl)-4-nitrothiophene-2-carboxamide] | 1000 to 10000 nM
17 | COc1ccc(NC(=O)c2cc([N+](=O)[O-])c(Sc3c(Cl)cncc3Cl)s2)cc1OC [Example 170, 5-((3,5-dichloropyridin-4-yl)thio)-4-nitro-N-(3,4-dimethoxyphenyl)thiophene-2-carboxamide] | ≤ 1000 nM
18 | O=C(NCc1ccco1)c1cc([N+](=O)[O-])c(Sc2c(Cl)cncc2Cl)s1 [Example 52, 5-((3,5-dichloropyridin-4-yl)thio)-N-(furan-2-ylmethyl)-4-nitrothiophene-2-carboxamide] | 1000 to 10000 nM
19 | C[S+]([O-])CCCNC(=O)c1cc([N+](=O)[O-])c(Sc2c(Cl)cncc2Cl)s1 (stereo not drawn) [Example 244, 5-((3,5-dichloropyridin-4-yl)thio)-N-(3-(methylsulfinyl)propyl)-4-nitrothiophene-2-carboxamide] | 1000 to 10000 nM
20 | O=C(NCCc1ccccc1F)c1cc([N+](=O)[O-])c(Sc2c(Cl)cncc2Cl)s1 [Example 111, 5-((3,5-dichloropyridin-4-yl)thio)-N-(2-fluorophenethyl)-4-nitrothiophene-2-carboxamide] | ≤ 1000 nM
21 | COCCN1CC(NC(=O)c2cc([N+](=O)[O-])c(Sc3c(Cl)cncc3Cl)s2)CC1=O (stereo not drawn) [Example 93, 5-((3,5-dichloropyridin-4-yl)thio)-N-(1-(2-methoxyethyl)-5-oxopyrrolidin-3-yl)-4-nitrothiophene-2-carboxamide] | 1000 to 10000 nM
22 | CSc1ccc(NC(=O)c2cc([N+](=O)[O-])c(Sc3c(Cl)cncc3Cl)s2)cc1 [Example 174, 5-((3,5-dichloropyridin-4-yl)thio)-N-(4-(methylthio)phenyl)-4-nitrothiophene-2-carboxamide] | ≤ 1000 nM
23 | O=C(NCc1ccc(-c2ccccc2)cc1)c1cc([N+](=O)[O-])c(Sc2c(Cl)cncc2Cl)s1 [Example 63, N-([1,1′-biphenyl]-4-ylmethyl)-5-((3,5-dichloropyridin-4-yl)thio)-4-nitrothiophene-2-carboxamide] | 1000 to 10000 nM
24 | O=C(NCCc1cccs1)c1cc([N+](=O)[O-])c(Sc2c(Cl)cncc2Cl)s1 [Example 55, 5-((3,5-dichloropyridin-4-yl)thio)-4-nitro-N-(2-(thiophen-2-yl)ethyl)thiophene-2-carboxamide] | 1000 to 10000 nM
25 | O=C(NCc1ccc(Br)cc1)c1cc([N+](=O)[O-])c(Sc2c(Cl)cncc2Cl)s1 [Example 118, N-(4-bromobenzyl)-5-((3,5-dichloropyridin-4-yl)thio)-4-nitrothiophene-2-carboxamide] | ≤ 1000 nM
26 | CCOc1cccc(CNC(=O)c2cc([N+](=O)[O-])c(Sc3c(Cl)cncc3Cl)s2)c1 [Example 149, 5-((3,5-dichloropyridin-4-yl)thio)-N-(3-ethoxybenzyl)-4-nitrothiophene-2-carboxamide] | ≤ 1000 nM
27 | COc1ccc(NC(=O)c2cc([N+](=O)[O-])c(Sc3c(Cl)cncc3Cl)s2)c(C)c1 [Example 132, 5-((3,5-dichloropyridin-4-yl)thio)-N-(4-methoxy-2-methylphenyl)-4-nitrothiophene-2-carboxamide] | ≤ 1000 nM
